Results taken from ChEMBL document CHEMBL4330110, “Discovery of an isocoumarin analogue that modulates neuronal functions via neurotrophin receptor TrkB” (Bioorg Med Chem Lett, 2019).
Calls of active or inactive are those of the source. No cut-off for these calls is given here.

How the values were obtained:
[1] = molecular target: T1, BDNF/NT-3 growth factors receptor (Homo sapiens, UniProt Q16620); test: Agonist activity at EGFP-fused TrkB receptor (unknown origin) expressed in HEK293T cells assessed as increase in TrkB phosphorylation at Y705 residue at 1 uM after 10 to 15 mins by Western blot analysis; format: cell-based
Target sequence in this assay (Q16620 32-822 limits assumed): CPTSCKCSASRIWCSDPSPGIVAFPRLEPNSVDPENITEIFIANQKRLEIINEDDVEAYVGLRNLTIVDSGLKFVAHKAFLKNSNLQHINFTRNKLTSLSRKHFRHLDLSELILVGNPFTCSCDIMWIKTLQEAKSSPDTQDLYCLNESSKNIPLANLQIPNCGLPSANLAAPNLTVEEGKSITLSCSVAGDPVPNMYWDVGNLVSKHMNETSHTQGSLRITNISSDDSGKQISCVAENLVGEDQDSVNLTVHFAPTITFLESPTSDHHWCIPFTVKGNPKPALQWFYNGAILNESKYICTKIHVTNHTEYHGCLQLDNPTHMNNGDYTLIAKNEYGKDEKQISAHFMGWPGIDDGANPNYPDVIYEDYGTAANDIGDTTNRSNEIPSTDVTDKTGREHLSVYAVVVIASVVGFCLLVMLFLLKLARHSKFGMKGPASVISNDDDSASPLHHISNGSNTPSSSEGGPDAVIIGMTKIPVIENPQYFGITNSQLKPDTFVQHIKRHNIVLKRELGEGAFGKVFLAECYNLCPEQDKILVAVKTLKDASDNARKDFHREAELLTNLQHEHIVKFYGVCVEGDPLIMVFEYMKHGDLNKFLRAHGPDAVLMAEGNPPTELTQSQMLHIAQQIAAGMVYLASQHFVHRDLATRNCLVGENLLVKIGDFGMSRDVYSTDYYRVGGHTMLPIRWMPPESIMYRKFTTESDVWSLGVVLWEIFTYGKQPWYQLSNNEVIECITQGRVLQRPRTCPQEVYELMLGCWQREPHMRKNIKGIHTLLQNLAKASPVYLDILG

[2] = molecular target: T1, BDNF/NT-3 growth factors receptor; test: Agonist activity at EGFP-fused TrkB receptor (unknown origin) expressed in HEK293T cells assessed as increase in TrkB phosphorylation at Y705 residue after 10 to 15 mins by Western blot analysis; format: cell-based
Target sequence in this assay (Q16620 32-822 limits assumed): as above

[3] = molecular target: T2, High affinity nerve growth factor receptor (Homo sapiens, UniProt P04629); test: Agonist activity at RFP-fused TrkA receptor (unknown origin) expressed in HEK293T cells assessed as increase in TrkA phosphorylation at Y490 residue at 1 uM after 10 to 15 mins by Western blot analysis; format: cell-based
Target sequence in this assay (P04629 33-796 limits assumed): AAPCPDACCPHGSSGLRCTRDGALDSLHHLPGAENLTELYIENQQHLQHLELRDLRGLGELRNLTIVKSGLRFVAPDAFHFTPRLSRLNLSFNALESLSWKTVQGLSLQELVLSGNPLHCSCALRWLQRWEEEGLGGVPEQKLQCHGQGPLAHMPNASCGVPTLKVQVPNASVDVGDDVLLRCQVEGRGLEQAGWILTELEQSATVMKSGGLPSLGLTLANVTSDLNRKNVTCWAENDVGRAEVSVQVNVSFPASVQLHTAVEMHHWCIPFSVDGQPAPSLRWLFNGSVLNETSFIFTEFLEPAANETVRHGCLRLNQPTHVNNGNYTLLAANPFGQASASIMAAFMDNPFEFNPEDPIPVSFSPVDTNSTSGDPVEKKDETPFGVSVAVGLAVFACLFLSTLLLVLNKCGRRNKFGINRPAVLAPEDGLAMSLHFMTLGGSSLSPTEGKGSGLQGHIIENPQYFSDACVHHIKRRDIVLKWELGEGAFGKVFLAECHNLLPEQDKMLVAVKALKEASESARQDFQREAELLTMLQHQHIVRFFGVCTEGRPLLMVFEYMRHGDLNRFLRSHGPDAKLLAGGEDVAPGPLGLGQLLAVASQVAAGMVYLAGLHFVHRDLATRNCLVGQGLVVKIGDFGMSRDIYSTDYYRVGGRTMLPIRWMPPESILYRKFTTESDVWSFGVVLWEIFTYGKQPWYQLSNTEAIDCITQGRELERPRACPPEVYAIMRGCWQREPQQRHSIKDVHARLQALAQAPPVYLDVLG

[4] = molecular target: BDNF/NT-3 growth factors receptor (Mus musculus) (UniProt P15209); test: Agonist activity at TrkB receptor in Swiss mouse primary cortical neurons assessed as increase in TrkB phosphorylation at Y705 residue after 15 mins by Western blot analysis
BDNF/NT-3 growth factors receptor (Mus musculus), sequence (P15209 whole entry, the tested form may be a part): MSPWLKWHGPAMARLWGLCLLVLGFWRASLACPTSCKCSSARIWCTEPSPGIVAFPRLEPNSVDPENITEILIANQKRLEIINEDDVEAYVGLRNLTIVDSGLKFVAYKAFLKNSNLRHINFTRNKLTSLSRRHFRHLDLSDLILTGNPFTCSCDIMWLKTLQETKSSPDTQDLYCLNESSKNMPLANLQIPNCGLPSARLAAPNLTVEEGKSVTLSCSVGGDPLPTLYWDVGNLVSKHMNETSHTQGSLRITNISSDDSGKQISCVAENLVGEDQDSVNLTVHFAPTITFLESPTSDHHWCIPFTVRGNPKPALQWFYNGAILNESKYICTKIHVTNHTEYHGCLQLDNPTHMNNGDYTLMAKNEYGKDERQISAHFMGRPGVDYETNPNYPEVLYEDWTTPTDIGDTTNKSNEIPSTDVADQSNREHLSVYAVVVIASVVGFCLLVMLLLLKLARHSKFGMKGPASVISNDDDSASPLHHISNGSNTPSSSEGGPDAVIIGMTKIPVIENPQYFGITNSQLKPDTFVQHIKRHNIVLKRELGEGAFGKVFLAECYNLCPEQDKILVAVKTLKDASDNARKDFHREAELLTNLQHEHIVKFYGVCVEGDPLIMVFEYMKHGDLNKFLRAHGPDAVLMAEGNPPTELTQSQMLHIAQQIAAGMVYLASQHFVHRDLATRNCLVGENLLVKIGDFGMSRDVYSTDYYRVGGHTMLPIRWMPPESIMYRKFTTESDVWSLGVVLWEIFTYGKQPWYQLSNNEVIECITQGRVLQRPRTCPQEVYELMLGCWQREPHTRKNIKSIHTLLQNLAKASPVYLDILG

[5] = molecular target: T1, BDNF/NT-3 growth factors receptor; test: Agonist activity at EGFP-fused TrkB receptor (unknown origin) expressed in HEK293T cells after 6 hrs by luciferase reporter gene assay; format: cell-based
Target sequence in this assay (Q16620 whole entry, the tested form may be a part): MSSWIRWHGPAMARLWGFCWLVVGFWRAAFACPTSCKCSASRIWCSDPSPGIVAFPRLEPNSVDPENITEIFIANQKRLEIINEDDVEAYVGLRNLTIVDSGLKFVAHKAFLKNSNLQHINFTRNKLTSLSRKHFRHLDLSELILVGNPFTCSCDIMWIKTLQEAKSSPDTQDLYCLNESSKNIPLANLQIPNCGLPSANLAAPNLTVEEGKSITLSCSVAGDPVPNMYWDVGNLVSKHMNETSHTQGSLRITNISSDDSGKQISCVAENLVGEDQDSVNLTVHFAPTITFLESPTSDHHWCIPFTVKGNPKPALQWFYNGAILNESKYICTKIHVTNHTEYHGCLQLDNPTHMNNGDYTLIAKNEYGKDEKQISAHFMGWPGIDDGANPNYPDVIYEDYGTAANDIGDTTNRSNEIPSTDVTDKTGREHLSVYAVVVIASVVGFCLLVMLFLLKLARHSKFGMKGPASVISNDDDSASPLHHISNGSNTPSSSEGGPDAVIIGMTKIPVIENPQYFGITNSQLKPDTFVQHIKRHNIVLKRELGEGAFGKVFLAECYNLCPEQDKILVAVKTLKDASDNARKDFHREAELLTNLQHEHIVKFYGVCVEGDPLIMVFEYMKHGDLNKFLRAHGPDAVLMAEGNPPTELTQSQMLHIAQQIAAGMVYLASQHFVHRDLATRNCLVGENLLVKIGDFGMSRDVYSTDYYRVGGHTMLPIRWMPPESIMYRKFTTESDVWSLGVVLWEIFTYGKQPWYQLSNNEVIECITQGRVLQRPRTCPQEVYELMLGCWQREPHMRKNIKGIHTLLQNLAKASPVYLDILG

[6] = molecular target: T2, High affinity nerve growth factor receptor; test: Agonist activity at RFP-fused TrkA receptor (unknown origin) expressed in HEK293T cells after 6 hrs by luciferase reporter gene assay; format: cell-based
Target sequence in this assay (P04629 whole entry, the tested form may be a part): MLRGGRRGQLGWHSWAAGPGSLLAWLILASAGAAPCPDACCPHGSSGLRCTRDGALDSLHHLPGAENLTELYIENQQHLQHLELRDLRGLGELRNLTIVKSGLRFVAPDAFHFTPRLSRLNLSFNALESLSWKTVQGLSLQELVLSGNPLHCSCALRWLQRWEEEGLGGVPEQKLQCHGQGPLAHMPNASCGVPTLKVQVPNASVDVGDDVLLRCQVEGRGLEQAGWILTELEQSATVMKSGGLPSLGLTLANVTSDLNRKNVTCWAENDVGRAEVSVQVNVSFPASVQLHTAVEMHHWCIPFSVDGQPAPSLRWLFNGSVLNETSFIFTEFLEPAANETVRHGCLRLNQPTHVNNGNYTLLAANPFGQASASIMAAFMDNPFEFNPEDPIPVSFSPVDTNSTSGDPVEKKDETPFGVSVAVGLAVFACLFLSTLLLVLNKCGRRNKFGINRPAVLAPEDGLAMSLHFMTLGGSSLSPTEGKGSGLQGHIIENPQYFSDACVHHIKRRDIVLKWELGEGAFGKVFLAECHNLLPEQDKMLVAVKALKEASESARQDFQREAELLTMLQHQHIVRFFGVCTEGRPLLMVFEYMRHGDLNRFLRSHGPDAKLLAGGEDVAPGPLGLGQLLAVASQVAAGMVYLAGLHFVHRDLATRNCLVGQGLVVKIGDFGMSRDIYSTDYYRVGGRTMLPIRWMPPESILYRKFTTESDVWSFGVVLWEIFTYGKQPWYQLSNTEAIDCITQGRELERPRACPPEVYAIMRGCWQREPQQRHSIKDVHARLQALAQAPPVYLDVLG

[7] = molecular target: Luciferin 4-monooxygenase (Photinus pyralis) (UniProt P08659); test: Activation of firefly luciferase activity expressed in HEK293T cells after 6 hrs by luminescence assay; format: cell-based
Luciferin 4-monooxygenase (Photinus pyralis), sequence (P08659 whole entry, the tested form may be a part): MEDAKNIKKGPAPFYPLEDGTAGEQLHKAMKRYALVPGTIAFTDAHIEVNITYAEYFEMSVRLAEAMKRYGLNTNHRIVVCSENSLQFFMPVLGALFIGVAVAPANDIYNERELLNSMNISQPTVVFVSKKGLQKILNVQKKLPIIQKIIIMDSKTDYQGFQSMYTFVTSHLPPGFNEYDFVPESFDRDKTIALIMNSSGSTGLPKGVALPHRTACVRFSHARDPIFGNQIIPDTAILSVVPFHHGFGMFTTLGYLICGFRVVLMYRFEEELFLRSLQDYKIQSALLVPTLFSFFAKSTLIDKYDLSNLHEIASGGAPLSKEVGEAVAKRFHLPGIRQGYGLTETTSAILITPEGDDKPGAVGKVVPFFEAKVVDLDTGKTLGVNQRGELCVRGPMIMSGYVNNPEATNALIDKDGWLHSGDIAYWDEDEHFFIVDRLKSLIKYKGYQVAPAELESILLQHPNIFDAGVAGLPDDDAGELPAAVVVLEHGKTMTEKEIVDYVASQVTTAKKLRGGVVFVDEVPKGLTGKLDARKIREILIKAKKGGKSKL

[8] = species on record: Homo sapiens; test: Selectivity ratio of EC50 for RFP-fused TrkA receptor (unknown origin) expressed in HEK293T cells to EC50 for […] receptor (unknown origin) expressed in HEK293T cells; format: cell-based
[9] = molecular target: T1, BDNF/NT-3 growth factors receptor; test: Agonist activity at EGFP-fused TrkB receptor (unknown origin) expressed in HEK293T cells assessed as increase in ERK1/2 phosphorylation after 15 mins by Western blot analysis; format: cell-based
Target sequence in this assay (Q16620 32-822 limits assumed): as the sequence (Q16620 32-822 limits assumed) above

[10] = molecular target: BDNF/NT-3 growth factors receptor (Mus musculus) (UniProt P15209); test: Agonist activity at TrkB receptor in Swiss mouse primary cortical neurons assessed as increase in MAP2 expression after 72 hrs by Western blot analysis
[11] = molecular target: BDNF/NT-3 growth factors receptor (Mus musculus) (UniProt P15209); test: Agonist activity at TrkB receptor in Swiss mouse primary cortical neurons assessed as increase in PSD95 expression after 72 hrs by Western blot analysis
[12] = molecular target: BDNF/NT-3 growth factors receptor (Mus musculus) (UniProt P15209); test: Agonist activity at TrkB receptor in Swiss mouse primary cortical neurons transfected with AAV2 Tdtomato assessed as increase in dendritic arborization at 100 nM after 72 hrs by confocal microscopic analysis

How did the Activity [1] turn out when `O=c1oc(-c2ccc3c(c2)OCO3)cc2cccc(O)c12` was run?
Its Activity is “Active”.

What does the source list for `COc1ccc(-c2cc3cccc(O)c3c(=O)o2)cc1`?
Activity [1]: Active; Activity [2]: Dose-dependent effect; Activity [3]: Active; Activity [4]: Dose-dependent effect; EC50 [5]: 87.2 nM; EC50 [6]: 667 nM; Activity [7]: inactive; Ratio EC50 [8]: > 7; Activity [9]: Dose-dependent effect; Activity [10]: Dose-dependent effect; Activity [11]: inactive; Activity [12]: Active
